Laboratory results as given in patent publication US20230190760A1, “ADVANTAGEOUS THERAPIES FOR DISORDERS MEDIATED BY IKAROS OR AIOLOS” (C4 Therapeutics, Inc., priority 2020, published 2023).

Columns and labels:
[1] = molecular target: G1 to S Phase Transition 1 (GSPT1) (Homo sapiens, UniProt P15170); experiment: Targeted cell-based assay for GSPT1; settings: up to 10 μM
[2] = tested on: hematological cancer cell lines; experiment: Anti-proliferative activity in hematological cancer cell lines (whole panel); assay type: cell-based; settings: in multiple cell lines, 96 hours
OCI-LY10 = experiment: Anti-proliferative activity, 96 hours; settings: Homo sapiens, OCI-Ly10, 96 h
IKZF1 [3] = molecular target: T1, IKZF1 (Homo sapiens, UniProt Q13422+Q96SW2)
Protocol: Endogenous expression of IKZF1 in NCIH929 cells was determined by addition of N-terminal HiBiT tag to the NCIH929 cell line using CRISPR-Cas9. Briefly, test compound was added to 384-well plates at a top concentration of 1 μM with 10 points, half log titration in duplicates. NCIH929 cells expressing HiBiT-tagged IKZF1 were seeded into the 384-well plates in RPMI medium containing 10% FBS and 0.05 mM 2-mercaptoethanol at a cell density of 15000 cells per well. Cells treated in the absence of the test compound were the negative control and wells containing media only were the positive control. Following compound treatment, cells were incubated at 37° C. with 5% CO2 for 1.5 hr. HiBiT signal was determined using Nano-Glo™ HiBiT Lytic Assay System (Promega, N3050) and luminescence was acquired on EnVision™ Multilabel Reader (PerkinElmer, Santa Clara, Calif., USA). % IKZF1 remaining was determined by normalizing the signal with positive and negative controls on the same microtiter plate. […] Curve fit and IC50 determination was performed by 4 parametric regression analysis.
NCIH929 cells expressing HiBiT-tagged IKZF1 were seeded into the 384-well plates in RPMI medium containing 10% FBS and 0.05 mM 2-mercaptoethanol at a cell density of 15000 cells per well. Cells treated in the absence of the test compound were the negative control and wells containing media only were the positive control. Following compound treatment, cells were incubated at 37° C. with 5% CO2 for 1 or 2 hr. HiBiT signal was determined using Nano-Glo™ HiBiT Lytic Assay System (Promega, N3050) and luminescence was acquired on EnVision™ Multilabel Reader (PerkinElmer, Santa Clara, Calif., USA). % IKZF1 remaining was determined by normalizing the signal with positive and negative controls on the same microtiter plate. Curve fit and IC50 determination was performed by 4 parametric regression analysis.

MM.1R = experiment: Anti-proliferative activity, 96 hours
[4] = tested on: 8 multiple myeloma cell lines; experiment: Growth of 8 multiple myeloma cell lines (CellTiter-Glo, 96 hour); assay type: cell-based
[5] = tested on: Caspase 3/7 activity in TMD8 cells; experiment: Apoptosis induction, Caspase 3/7 activity in TMD8 cells
Protocol: 30 μL TMD8 cells were seeded into the 384-well plates in RPMI medium containing 10% FBS at a cell density of 2000 cells per well. Cells treated in the absence of the test compound were the negative control. Following compound treatment, cells were incubated at 37° C. with 5% CO2 for 48 hr. 30 μL reconstituted Caspase 3/7 Assay detection reagent was added to each well and luminescence was acquired on EnVision™ Multilabel Reader (PerkinElmer, Santa Clara, Calif., USA).

DL40 = experiment: Anti-proliferative activity, 96 hours
TMD8 = experiment: Anti-proliferative activity, 96 hours; settings: Homo sapiens, TMD8, 96 h
Maver-1 = experiment: Anti-proliferative activity, 96 hours; settings: Homo sapiens, Maver1, 96 h
[6] = tested on: IKZF1, IKZF3, IRF-1, IRF-4 and Caspase-3; experiment: KI-JK ALCL tumor protein expression, western blot (Example 20); assay type: in vivo, mice; settings: 100 μg/kg PO
Protocol: A second xenograft study was conducted in female NOD SCID mice bearing KI-JK ALCL tumors. […] Once tumors reached a mean tumor volume (MTV) of 450 mm^3 they were stratified into two groups.
For the vehicle control group, 2 mice were sacrificed, and tumors harvested 24 hours post a single dose. Mice in the Compound 1 group were sampled at 4- and 24-hours post dose a single dose, with two tumors collected per time point. Additional mice were dosed daily for 5 or 7 days with tumor collections 24 hours post last dose, with 2 mice sampled per time point. Tumors were then mechanically homogenized, and protein extracted using RIPA buffer (Sigma Aldrich). Protein concentration was quantified using a Pierce™ BCA Protein Assay Kit, samples were reduced, and equal protein amounts were then loaded onto a western blot gel for analysis. Tumors were analyzed for IKZF1 (Invitrogen, PA5-23728), IKZF3 (CST, 15103), IRF-1 (CST, 8478), IFR-4 (CST, 15106), and Caspase-3 (CST, 9662) expression. […] Data is expressed as percentage of each target in comparison to the target level measured in the vehicle control and normalized to GAPDH levels to control for protein loading. Error bars represent ±SEM values.

RL = experiment: Anti-proliferative activity, 96 hours; settings: Homo sapiens
[7] = tested on: RPMI-8226 multiple myeloma tumors; settings: Combination
Protocol: A xenograft study was conducted in female CB17 SCID mice bearing RPMI-8226 multiple myeloma tumors. Female SCID mice were inoculated subcutaneously in the right flank with 10×10^6 tumors cells in 0.2 mL of PBS supplemented with matrigel (PBS:matrigel=1:1). Tumor volume was measured twice weekly in two dimensions using calipers, and volume was calculated using the formula: (w2×l)/2=mm^3, assuming 1 mg is equivalent to 1 mm^3 of tumor volume. […] Treatment began on Day 0 with established subcutaneous RPMI-8226 tumors with a mean tumor volume (MTV) of 130 mm^3.
All agents were administered to mice bearing RPMI-8226 tumors on day 0 and dosed until an individual moue tumor volume reached or exceeded 1000 mm^3, at which point the mouse was removed from the study and dosing stopped. […] Dexamethasone was dosed IV once a week at 5000 μg/kg and formulated in saline. […] Body weight and MTV were measured on a 2× weekly schedule. The study end point was reaching a TV greater than 1000 mm^3, at which point any mouse with a TV reaching this cut off TV was removed from the study. […] The survival analysis used was Logrank (Mantel-Cox test). Data are expressed as MTV±SEM.

H929 = experiment: Anti-proliferative activity, 96 hours; settings: Homo sapiens, NCI-H929, 96 h
TMD8 DLBCL tumors = experiment: TMD8 DLBCL xenograft, NOD SCID mice; assay type: in vivo
Protocol: A xenograft study was also conducted in female NOD SCID mice bearing TMD8 DLBCL tumors.
Statistical analysis was performed using two-way analysis of variance (ANOVA). Data are expressed as MTV±SEM.

OPM-2 = experiment: Anti-proliferative activity, 96 hours; settings: Homo sapiens, OPM-2, 96 h
IKZF1 [8] = molecular target: T2, IKZF1 (Rattus norvegicus, UniProt A0A0G2JVD9); experiment: Ex vivo IKZF1 degradation in PBMC, rat; assay type: cell-based; settings: rat cells
T2 construct: from tissue; host or cells: peripheral blood cells (PBMC) of rats, ex vivo
Protocol: IKZF1/3 are not degraded in mouse cells treated with thalidomide or its IMiD® analogs because of a single amino acid difference in mouse cereblon compared to human cereblon that causes steric hindrance and prevents recruitment of IKZF1/3. Ex vivo studies were performed in peripheral blood cells (PBMC) of mice, rats, dogs, and monkeys to identify relevant species for IND enabling-toxicity studies based on the degree of IKZF1 degradation by Compound 1. IKZF1 was not degraded in mouse or rat cells by Compound 1, thus, while rat could not be considered a pharmacologically relevant species for human risk assessment, it was chosen as the rodent species for toxicological studies because it is widely used in toxicity testing and a substantial historical toxicology database is available. […] Therefore, cynomolgus monkey was chosen for non-rodent toxicological studies.

HH = experiment: Anti-proliferative activity, 96 hours; settings: Homo sapiens
IKZF1 [9] = molecular target: T1, IKZF1; experiment: Ikaros degradation in Ki-JK cells by flow cytometry; assay type: cell-based; parameters: host or cells: Ki-JK cells
Protocol: Flow cytometry was used to assess the Ikaros degradation characteristics and evaluate the mechanism of Compound 1. […] The cells were prepared for staining using the FOXP3 Fix/Perm Buffer Set (BioLegend, 421403) according to the manufacturer's instructions at 1.5, 3, and 6 hours. IKZF1-AF488 (564867) and IgG1-488 (557782) (BD Biosciences) were diluted 1:100 in Perm Buffer. Signal was detected using the Guava® easyCyte™ Flow Cytometer. […] Degradation was not observed with the combination of Compound 1 and bortezomib or MLN-4924.

[10] = all eight multiple myeloma cell lines

T1 sequence (Q13422 whole entry): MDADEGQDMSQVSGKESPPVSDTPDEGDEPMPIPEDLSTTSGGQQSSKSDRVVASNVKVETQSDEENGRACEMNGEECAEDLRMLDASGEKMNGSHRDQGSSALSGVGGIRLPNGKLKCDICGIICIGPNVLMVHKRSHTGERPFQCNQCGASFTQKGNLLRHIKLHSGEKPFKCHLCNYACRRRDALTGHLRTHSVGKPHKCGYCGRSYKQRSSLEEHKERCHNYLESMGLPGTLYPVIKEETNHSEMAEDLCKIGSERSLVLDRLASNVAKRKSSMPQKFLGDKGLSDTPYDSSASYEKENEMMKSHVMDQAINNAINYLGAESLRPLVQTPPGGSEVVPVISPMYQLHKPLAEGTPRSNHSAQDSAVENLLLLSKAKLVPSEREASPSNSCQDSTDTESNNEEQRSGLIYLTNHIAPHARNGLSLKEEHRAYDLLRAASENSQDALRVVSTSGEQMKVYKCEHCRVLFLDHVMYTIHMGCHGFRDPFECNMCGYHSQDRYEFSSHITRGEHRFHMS
T1 sequence (Q96SW2 whole entry): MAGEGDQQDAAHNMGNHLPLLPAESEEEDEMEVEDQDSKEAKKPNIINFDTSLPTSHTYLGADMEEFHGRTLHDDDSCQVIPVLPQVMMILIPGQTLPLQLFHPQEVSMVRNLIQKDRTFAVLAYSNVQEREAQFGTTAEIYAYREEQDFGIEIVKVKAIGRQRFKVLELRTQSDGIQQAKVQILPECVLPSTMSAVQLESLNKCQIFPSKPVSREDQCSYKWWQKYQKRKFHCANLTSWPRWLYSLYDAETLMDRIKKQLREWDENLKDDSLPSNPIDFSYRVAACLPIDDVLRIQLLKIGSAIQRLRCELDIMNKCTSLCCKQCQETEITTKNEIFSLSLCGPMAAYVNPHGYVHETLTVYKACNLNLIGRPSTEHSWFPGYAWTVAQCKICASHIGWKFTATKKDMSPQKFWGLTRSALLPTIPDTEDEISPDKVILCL
T1 sequence (Q16531 2-1140 partner limits assumed): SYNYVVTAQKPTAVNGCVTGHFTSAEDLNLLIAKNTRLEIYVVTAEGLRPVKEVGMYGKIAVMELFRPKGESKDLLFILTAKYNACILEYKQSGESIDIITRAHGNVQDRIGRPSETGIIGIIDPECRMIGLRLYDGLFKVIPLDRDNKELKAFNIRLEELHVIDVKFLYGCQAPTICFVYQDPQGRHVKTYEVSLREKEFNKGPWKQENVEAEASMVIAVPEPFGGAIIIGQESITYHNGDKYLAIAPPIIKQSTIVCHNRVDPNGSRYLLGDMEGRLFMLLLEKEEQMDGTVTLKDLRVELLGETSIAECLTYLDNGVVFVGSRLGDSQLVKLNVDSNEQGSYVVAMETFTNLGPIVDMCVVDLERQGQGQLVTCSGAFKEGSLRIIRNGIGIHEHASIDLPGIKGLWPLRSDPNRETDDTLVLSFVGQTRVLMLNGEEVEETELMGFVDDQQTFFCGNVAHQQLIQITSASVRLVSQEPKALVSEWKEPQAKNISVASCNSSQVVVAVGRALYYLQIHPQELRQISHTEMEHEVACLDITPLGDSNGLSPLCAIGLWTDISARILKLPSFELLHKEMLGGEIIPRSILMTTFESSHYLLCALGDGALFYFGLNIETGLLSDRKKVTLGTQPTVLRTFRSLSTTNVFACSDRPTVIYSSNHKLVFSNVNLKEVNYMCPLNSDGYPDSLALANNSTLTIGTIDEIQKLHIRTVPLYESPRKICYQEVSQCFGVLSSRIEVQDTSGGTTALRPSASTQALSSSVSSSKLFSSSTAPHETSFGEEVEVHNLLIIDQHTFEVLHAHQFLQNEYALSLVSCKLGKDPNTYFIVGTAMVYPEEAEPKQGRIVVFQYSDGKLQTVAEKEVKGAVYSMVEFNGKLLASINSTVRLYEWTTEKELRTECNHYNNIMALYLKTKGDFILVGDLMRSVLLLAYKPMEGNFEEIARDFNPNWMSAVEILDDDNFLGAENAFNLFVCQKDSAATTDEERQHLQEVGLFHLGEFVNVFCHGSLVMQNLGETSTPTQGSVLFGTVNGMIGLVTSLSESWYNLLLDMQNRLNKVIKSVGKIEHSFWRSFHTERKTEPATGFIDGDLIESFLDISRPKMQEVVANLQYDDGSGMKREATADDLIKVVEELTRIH
Sequence of G1 to S Phase Transition 1 (GSPT1) (Q96SW2 whole entry partner, species assumed): as the sequence (Q96SW2 whole entry) above
Sequence of G1 to S Phase Transition 1 (GSPT1) (Q16531 2-1140 partner limits assumed, species assumed): as the sequence (Q16531 2-1140 partner limits assumed) above
Sequence of G1 to S Phase Transition 1 (GSPT1) (P15170 whole entry, species assumed): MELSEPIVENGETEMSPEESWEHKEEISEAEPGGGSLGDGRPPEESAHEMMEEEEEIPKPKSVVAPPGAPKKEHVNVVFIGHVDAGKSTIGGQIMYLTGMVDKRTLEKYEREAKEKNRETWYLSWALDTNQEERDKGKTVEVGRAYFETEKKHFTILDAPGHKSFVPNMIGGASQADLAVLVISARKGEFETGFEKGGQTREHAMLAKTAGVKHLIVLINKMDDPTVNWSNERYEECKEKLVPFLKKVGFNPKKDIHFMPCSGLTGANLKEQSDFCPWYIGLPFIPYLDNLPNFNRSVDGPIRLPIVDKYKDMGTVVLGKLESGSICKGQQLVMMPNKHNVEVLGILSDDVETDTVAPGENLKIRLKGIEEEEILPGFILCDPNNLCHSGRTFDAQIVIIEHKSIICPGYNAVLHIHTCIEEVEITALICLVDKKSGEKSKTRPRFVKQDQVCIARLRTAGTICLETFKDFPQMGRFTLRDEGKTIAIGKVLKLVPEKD
T2 sequence (A0A0G2JVD9 1-562): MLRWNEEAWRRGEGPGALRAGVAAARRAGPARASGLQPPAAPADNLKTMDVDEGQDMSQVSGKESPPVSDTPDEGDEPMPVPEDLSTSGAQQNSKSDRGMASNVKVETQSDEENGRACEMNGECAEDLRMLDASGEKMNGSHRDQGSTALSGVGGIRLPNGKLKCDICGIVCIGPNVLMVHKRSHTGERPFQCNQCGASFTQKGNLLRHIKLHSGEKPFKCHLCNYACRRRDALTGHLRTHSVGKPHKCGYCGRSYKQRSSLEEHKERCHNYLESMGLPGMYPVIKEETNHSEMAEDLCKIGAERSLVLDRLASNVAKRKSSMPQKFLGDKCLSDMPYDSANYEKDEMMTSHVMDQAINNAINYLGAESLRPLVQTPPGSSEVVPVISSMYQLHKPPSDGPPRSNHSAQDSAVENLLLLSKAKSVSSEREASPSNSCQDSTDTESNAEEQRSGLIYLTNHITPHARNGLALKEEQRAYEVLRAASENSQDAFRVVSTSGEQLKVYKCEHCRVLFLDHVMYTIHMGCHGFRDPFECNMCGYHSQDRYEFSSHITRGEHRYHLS
T2 sequence (Q56AP7 whole entry partner): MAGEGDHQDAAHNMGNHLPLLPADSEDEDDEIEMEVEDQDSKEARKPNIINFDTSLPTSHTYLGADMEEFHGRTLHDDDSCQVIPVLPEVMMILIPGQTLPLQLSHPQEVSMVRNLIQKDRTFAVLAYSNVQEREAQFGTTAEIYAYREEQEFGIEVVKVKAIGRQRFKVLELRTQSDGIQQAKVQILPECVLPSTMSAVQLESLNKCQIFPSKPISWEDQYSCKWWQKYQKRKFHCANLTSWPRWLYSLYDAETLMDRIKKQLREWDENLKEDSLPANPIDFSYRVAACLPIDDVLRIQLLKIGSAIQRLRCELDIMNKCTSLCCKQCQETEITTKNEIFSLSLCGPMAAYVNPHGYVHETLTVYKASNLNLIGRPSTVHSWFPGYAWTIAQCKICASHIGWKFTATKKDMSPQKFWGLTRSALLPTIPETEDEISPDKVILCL

## O=C1CC[C@H](N2C(=O)c3cccc4c(Cc5ccc(CN6CCOCC6)cc5)ccc2c34)C(=O)N1 (single isomer, unassigned) [Compound 1]
[1]
  effect on GSPT1: no significant effect
[2]
  more active than pomalidomide: more than 5,000 fold
OCI-LY10
  IC50: 0.03 nM
IKZF1 [3]; 2 hour treatment
  DC50: 0.021 nM
IKZF1 [3]; NCI-H929, read-out: Mean Emax (%) ± SD, IKZF1 Degradation
  Emax: 22.4 ± 3.1%
IKZF1 [3]; NCI-H929, read-out: maximal degradation of IKZF1
  Dmax: > 80%
IKZF1 [3]; after 1 hour treatment
  IKZF1 degradation: 50%
IKZF1 [3]; at 2 hr
  potency greater than pomalidomide: > 2000 fold
IKZF1 [3]; multiple myeloma cells, within 1.5 hours at 0.3 nM
  degradation of steady state IKZF1: > 75%
MM.1R
  IC50: 0.083 nM
[4]; across a panel of cell lines (FIG. 32)
  more potent than pomalidomide: 2-3 magnitudes
[4]; [10]
  IC50: < 1 nM
  maximal inhibition: greater than 50%
[4]; eight multiple myeloma cell lines
  more potent than pomalidomide: 1000 fold
[5]; 48 hr
  Maximum caspase 3/7 activity: > 8 fold
[5]; FIG. 51
  activity level of caspase-3 and caspase-7 increased: more than 800%
[5]; Homo sapiens, TMD8, 48 h, read-out: EC50, caspase 3/7 activity
  EC50: 2.7 nM
DL40
  IC50: 0.91 nM
TMD8
  IC50: 0.078 nM
Maver-1
  IC50: 12.1 nM
[6]
  concentration of caspase-3 and IRF-1: increased
  percentage of IKZF1, IKZF3, and IRF-4: decreased
RL
  IC50: 2.32 nM
[7]; Compound 1 10 μg/kg PO daily, Dexamethasone 5000 μg/kg IV once a week
  Median Survival: 33
[7]; survival, Logrank, Compound 1 10 μg/kg, Dexamethasone 5000 μg/kg
  Statistical Significance Compared to Vehicle: 0.007
H929
  IC50: 0.073 nM
TMD8 DLBCL tumors; 100 μg/kg PO daily
  Statistical Significance Compared to Vehicle: <0.0001
TMD8 DLBCL tumors; Compound 1 100 μg/kg, pomalidomide 3000 μg/kg, 18 days
  tumor volume: decreased
OPM-2
  IC50: 0.058 nM
IKZF1 [8]
  IKZF1 degradation: not degraded
HH
  IC50: 58 nM
IKZF1 [9]; 0.001-100 nM, read at 1.5, 3 and 6 hours
  time of maximal Ikaros degradation: 6 h
IKZF1 [9]; with bortezomib (10 μM) or MLN-4924 (10 μM), 6 hours
  Ikaros degradation with proteasome or neddylation inhibitor: not observed
